“And” between values parts separate entries of the source, which are not always exact repeats. Equal entries are not always repeated. Where two headings read alike, the source gives them in different places.
Columns and labels:
[1] = target: T1, hHgs 1-390 protein (Homo sapiens, UniProt O14964)
[2] = system: 17Cl-1 cells
[3] = system: MHV
[4] = target: T1, hHgs 1-390 protein; experiment: biochemical

T1 sequence (O14964 1-390): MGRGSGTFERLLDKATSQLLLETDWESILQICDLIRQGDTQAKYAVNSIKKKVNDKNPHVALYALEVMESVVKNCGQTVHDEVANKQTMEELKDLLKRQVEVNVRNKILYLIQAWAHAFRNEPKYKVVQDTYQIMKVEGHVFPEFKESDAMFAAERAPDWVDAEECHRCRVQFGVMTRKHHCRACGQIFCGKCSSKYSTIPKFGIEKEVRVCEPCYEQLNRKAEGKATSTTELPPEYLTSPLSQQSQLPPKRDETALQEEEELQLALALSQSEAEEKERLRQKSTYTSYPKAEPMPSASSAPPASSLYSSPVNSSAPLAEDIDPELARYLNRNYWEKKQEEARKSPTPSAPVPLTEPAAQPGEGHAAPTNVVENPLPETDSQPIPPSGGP

## CCOc1ccc2nc3cc(N)ccc3c(N)c2c1 [Ethacridine lactate, ethacridine lactate]
[1]; 0.00610352 uM
  Polarization: 140 and 149
[1]; 0.0244141 uM
  Polarization: 140 and 144
[1]; 0.0976562 uM
  Polarization: 143
[1]; 0.390625 uM
  Polarization: 137 and 141
[1]; 1.5625 uM
  Polarization: 134 and 136
[1]; 6.25 uM
  Polarization: 102 and 105
[1]; 25 uM
  Polarization: 73 and 70
[1]; 100 uM
  Polarization: 68 and 66
[2]; concentration 0.01
  cell viability, Figures S9A, B, D-F: 101.299 and 101.948 and 102.597
[2]; concentration 0.03
  cell viability, Figures S9A, B, D-F: 100.98 and 101.961 and 102.614
[2]; concentration 0.1
  cell viability, Figures S9A, B, D-F: 100.429 and 99.7854 and 102.039
[2]; concentration 0.3
  cell viability, Figures S9A, B, D-F: 100.553 and 101.217
[2]; concentration 1
  cell viability, Figures S9A, B, D-F: 103.053 and 102.399 and 103.381
[2]; concentration 3
  cell viability, Figures S9A, B, D-F: 103.176 and 101.862 and 103.834
[2]; concentration 10
  cell viability, Figures S9A, B, D-F: 96.1957 and 98.8043
[2]; concentration 25
  cell viability, Figures S9A, B, D-F: 30.7973 and 30.3654 and 31.5947
[3]; concentration 10
  viability of infected cells (rescue of cytopathic effect), Figures S9G-L: 29.3773 and 29.6337 and 29.1575
[3]; concentration 30
  viability of infected cells (rescue of cytopathic effect), Figures S9G-L: 34.9451 and 36.63 and 36.4103
[3]; concentration 100
  viability of infected cells (rescue of cytopathic effect), Figures S9G-L: 33.0403 and 35.0549 and 36.2271
[3]; concentration 300
  viability of infected cells (rescue of cytopathic effect), Figures S9G-L: 32.8571 and 32.6374 and 34.6886
[3]; concentration 1000
  viability of infected cells (rescue of cytopathic effect), Figures S9G-L: 32.4176 and 32.0513 and 35.0916
[3]; concentration 3000
  viability of infected cells (rescue of cytopathic effect), Figures S9G-L: 33.0037 and 32.1612 and 34.9817
[3]; concentration 10000
  viability of infected cells (rescue of cytopathic effect), Figures S9G-L: 41.7582 and 41.0256 and 40.6593
[3]; concentration 25000
  viability of infected cells (rescue of cytopathic effect), Figures S9G-L: 8.462 and 8.5348 and 8.278
[4]
  IC50: 7.14 µM
